Experiment: In vitro dissolution of multiple capsules together in 0.1 N HCl (USP Apparatus II)
Assay type: physicochemical
Description: To test the anti-over ingestion properties of the pharmaceutical composition, multiple capsules were combined in a single reaction vessel and percentage of API released was measured. […] The in vitro dissolutions studies of dextromethorphan from Amberlite™ IRP69 from multiple capsules (1, 5, and 10) were carried out in 0.1 HCl with each 200 mg capsule containing 40 mg of the drug.
An additional experiment was performed to support the concept that the ceiling effect was not caused by solubility/sink limitation, but rather by retention by sequestering.
Next, the possibility to gain the same sequestering effect using physical blend of drug with resin instead of drug resinate complex was explored.

## COc1ccc2c(c1)[C@]13CCCC[C@@H]1[C@H](C2)N(C)CC3 [dextromethorphan]
  release from 1 capsule (40 mg) vs 10 capsules (400 mg) without resin: dose proportional release

From patent publication US9849125B1, “Anti-overingestion dosage forms” (BANNER LIFE SCIENCES LLC, priority 2015, dated 2017)
